Test results reported in article PMC9606171, “Synthetic PPAR Agonist DTMB Alleviates Alzheimer’s Disease Pathology by Inhibition of Chronic Microglial Inflammation in 5xFAD Mice” (Neurotherapeutics, 2022).
Read-outs that look alike come from different tables or passages of the source.

Assay: Pharmacokinetics and brain distribution after oral administration
Assay type: in vivo, C57BL/6 mice
Conditions: male, C57BL/6, mouse, mice; for Kp: brain / plasma, po, 50 mg/kg
Experimental: To investigate the pharmacokinetics and brain distribution of DTMB, fifty-six male C57BL/6 mice (22–26 g) were fasted with water ad libitum for 16 h before oral administration of DTMB and randomly divided into seven groups (n=8 per each sampling time point). Mice were administered with a DTMB suspension in 1% carboxymethylcellulose at a dose of 50 mg/kg via oral gavage, and blood samples (approximately 0.1 mL) were collected at 0, 0.16, 0.5, 1, 4, 8, and 24 h via the abdominal artery. Subsequently, whole brain tissues were isolated, weighed, and homogenized with two volume of ice-cold 80% methanol solution using a tissue grinder. Blood samples were centrifuged at 12,000 g for 1 min to separate plasma. Aliquots of plasma (30 µL) and brain homogenate (50 µL) samples were stored at − 80 °C until analysis. Concentrations of DTMB in plasma and brain homogenate samples were analyzed using an Agilent 6470 triple quadrupole liquid chromatography-mass spectrometry (LC–MS/MS) system (Agilent, Wilmington, DE, USA). Aliquots of plasma (30 µL each) and brain homogenate (50 µL each) were added to 100 μL of internal standard solution (IS; berberin 0.1 ng/mL in methanol) and vigorously mixed for 5 min. After centrifugation at 16,000 g for 10 min, a 5 µL aliquot of the supernatant was injected into the LC–MS/MS system. DTMB was separated on a Synergi Polar RP column (2.0 × 150 mm, 4 μm particle size; Phenomenex, Torrence, CA, USA) using an isocratic mobile phase consisting of 10 mM ammonium formate buffer (10%) and methanol (90%) containing 0.1% formic acid at a flow rate of 0.25 mL/min. Quantification of the analyte peaks was carried out at m/z 513.2 → 283.0 for DTMB (TR (retention time) 4.7 min) and m/z 336.1 → 320.0 for berberine (TR 2.9 min) in a […] ionization mode with optimized fragmentor of 135 V and collision energy of 25 or 30 eV, respectively. The pharmacokinetic parameters of DTMB in the plasma and brain were determined by the non-compartmental analysis (WinNonlin® 5.1; Pharsight, Mountain View, CA, USA). Elimination half-life (T1/2) was calculated from the elimination coefficient (K) of DTMB concentrations. Cmax indicated the maximum plasma concentrations and Tmax indicated time to reach Cmax. AUClast and AUCinf were calculated from the area under plasma concentrations curve from zero to the last time point and to infinity, respectively.

Kp (oral, plasma concentration range 0.63–66.9 ng/mL, read-out: mean brain DTMB concentration ratio over the plasma DTMB ([Brain]/[Plasma])): 2.69 | Kp (printed in the Brain column, 50 mg/kg oral, read-out: AUC ratio): 3.53 | Tmax (Brain, 50 mg/kg oral): 0.94 ± 0.18 h | half-life (Brain, 50 mg/kg oral): 4.41 ± 1.11 h | Tmax (Plasma, 50 mg/kg oral): 0.75 ± 0.27 h | half-life (Plasma, 50 mg/kg oral): 1.64 ± 0.27 h
SMILES: COc1ccc(-c2cc(=O)oc3c(C)c(OC(=O)[C@H](Cc4c[nH]c5ccccc45)NC(=O)OC(C)(C)C)ccc23)cc1 [DTMB]
